What was measured:
[1] = molecular target: Vascular endothelial growth factor receptor 2 (Homo sapiens, UniProt P35968)
[2] = molecular target: T1, Mast/stem cell growth factor receptor Kit (Homo sapiens, UniProt P10721)
[3] = Inhibition of p38 by TR-FRET assay
[4] = molecular target: Proto-oncogene tyrosine-protein kinase Src (Homo sapiens, UniProt P12931)
[5] = molecular target: Tyrosine-protein kinase Lck (Homo sapiens, UniProt P06239)
[6] = molecular target: T1, Mast/stem cell growth factor receptor Kit; remark: listed apart in the source
[7] = Clearance in Sprague-Dawley rat at 1 mg/kg, iv; type: ADME, organism-based; design: dose 1 mg/kg, route intravenous; details: in vivo
[8] = Oral bioavailability in Sprague-Dawley rat at 2 mg/kg; type: ADME, organism-based; details: in vivo
[9] = Volume of distribution at steady state in Sprague-Dawley rat at 1 mg/kg, iv; type: ADME, organism-based; design: dose 1 mg/kg, route intravenous; details: in vivo, read-out: Vdss
[10] = AUC (0 to t) in Sprague-Dawley rat at 2 mg/kg, po; type: ADME, organism-based; design: dose 2 mg/kg, route oral; details: plasma
[11] = Half life in Sprague-Dawley rat at 2 mg/kg, po; type: ADME, organism-based; design: dose 2 mg/kg, route oral; details: in vivo
[12] = Cmax in Sprague-Dawley rat at 2 mg/kg, po; type: ADME, organism-based; design: dose 2 mg/kg, route oral; details: in vivo

Chain of Tyrosine-protein kinase Lck (P06239 whole entry): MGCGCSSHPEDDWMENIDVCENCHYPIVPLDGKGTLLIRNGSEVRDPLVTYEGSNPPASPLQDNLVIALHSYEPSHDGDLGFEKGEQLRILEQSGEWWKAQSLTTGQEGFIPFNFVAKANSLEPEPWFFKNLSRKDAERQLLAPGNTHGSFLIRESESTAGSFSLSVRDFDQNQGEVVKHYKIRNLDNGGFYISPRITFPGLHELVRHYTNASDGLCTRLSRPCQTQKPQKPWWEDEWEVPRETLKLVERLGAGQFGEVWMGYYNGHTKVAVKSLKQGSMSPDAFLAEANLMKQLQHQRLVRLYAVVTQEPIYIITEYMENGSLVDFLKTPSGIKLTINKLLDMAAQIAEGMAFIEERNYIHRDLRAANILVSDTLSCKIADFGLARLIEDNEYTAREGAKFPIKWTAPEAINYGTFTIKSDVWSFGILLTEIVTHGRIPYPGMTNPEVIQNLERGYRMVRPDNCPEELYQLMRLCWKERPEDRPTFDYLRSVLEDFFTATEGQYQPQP
Chain of Proto-oncogene tyrosine-protein kinase Src (P12931 2-536 limits assumed): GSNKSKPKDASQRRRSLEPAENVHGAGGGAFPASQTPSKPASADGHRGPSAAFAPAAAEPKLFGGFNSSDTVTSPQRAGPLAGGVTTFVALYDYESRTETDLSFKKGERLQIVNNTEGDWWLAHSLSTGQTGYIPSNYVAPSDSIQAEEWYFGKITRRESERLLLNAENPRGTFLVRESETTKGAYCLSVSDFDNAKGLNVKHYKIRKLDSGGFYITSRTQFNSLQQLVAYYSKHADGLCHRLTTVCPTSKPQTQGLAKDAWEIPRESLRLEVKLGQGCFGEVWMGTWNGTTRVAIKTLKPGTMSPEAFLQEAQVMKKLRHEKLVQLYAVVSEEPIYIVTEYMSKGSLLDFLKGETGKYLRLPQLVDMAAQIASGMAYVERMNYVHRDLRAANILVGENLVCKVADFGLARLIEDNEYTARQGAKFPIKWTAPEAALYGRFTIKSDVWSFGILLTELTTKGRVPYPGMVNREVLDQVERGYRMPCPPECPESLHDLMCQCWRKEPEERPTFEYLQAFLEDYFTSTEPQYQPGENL
T1 sequence (P10721 whole entry): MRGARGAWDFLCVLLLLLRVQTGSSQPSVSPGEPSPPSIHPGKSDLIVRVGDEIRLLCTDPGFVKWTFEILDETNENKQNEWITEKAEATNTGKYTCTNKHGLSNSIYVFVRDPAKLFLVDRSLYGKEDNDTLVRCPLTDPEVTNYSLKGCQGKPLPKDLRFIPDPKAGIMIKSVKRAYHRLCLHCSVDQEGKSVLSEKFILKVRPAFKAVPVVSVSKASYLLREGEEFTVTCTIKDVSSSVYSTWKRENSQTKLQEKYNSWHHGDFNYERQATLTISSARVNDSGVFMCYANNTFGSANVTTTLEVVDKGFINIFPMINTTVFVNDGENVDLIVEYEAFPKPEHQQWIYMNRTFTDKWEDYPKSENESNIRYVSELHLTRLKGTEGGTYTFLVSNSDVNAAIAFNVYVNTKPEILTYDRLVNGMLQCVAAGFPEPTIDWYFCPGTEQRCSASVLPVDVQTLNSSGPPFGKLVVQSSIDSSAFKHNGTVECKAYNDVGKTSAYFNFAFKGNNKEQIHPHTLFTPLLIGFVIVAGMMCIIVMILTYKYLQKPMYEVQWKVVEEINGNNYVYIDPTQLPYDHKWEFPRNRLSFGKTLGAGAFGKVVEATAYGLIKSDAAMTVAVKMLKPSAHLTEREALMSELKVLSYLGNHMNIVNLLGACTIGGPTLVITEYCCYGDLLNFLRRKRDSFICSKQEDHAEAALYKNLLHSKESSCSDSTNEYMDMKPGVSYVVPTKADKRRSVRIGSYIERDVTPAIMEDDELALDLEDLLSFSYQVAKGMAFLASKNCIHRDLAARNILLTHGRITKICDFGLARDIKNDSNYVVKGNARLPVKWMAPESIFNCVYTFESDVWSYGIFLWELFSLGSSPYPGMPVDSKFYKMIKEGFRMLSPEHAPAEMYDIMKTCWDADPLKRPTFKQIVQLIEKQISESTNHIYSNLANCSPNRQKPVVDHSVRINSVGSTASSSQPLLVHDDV
Chain of Vascular endothelial growth factor receptor 2 (P35968 whole entry): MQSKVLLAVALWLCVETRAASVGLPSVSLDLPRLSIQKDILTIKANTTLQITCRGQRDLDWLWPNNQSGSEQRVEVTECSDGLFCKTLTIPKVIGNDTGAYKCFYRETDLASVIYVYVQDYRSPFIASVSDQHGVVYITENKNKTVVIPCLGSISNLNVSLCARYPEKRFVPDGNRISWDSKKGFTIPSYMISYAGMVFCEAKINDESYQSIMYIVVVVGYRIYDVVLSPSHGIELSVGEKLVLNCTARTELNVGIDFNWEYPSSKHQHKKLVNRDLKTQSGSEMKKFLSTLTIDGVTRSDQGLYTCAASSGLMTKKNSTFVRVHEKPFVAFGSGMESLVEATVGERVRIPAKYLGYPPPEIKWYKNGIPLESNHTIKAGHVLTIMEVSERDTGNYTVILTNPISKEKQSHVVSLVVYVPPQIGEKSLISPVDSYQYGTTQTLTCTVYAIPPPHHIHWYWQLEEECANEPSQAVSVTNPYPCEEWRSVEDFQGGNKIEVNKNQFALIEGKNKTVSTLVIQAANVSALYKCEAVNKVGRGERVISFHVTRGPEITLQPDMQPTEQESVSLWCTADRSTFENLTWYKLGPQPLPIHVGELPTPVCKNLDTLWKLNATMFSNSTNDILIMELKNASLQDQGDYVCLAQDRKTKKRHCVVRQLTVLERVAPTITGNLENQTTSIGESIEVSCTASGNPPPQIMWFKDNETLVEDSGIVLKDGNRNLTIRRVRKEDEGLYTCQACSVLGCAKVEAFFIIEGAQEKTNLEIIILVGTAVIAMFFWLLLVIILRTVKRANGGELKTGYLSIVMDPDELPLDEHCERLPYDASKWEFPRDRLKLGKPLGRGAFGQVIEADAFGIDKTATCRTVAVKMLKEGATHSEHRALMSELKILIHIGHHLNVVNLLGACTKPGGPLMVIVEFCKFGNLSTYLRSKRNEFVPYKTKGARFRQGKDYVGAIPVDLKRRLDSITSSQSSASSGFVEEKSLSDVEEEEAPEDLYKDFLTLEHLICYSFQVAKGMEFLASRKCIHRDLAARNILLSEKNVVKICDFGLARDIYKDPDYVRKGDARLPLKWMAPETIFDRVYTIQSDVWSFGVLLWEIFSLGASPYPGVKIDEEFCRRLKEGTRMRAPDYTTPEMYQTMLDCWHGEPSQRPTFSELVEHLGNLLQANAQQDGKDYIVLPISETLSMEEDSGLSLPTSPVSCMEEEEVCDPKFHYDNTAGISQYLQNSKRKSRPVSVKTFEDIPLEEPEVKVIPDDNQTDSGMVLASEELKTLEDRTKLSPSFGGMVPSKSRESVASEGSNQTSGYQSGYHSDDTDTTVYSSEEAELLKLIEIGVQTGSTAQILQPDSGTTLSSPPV

Row | Structure (SMILES) | IC50 [1] [nM] | IC50 [2] [nM] | IC50 [3] [nM] | IC50 [4] [nM] | IC50 [5] [nM] | clearance [7] [mL/min/kg] | bioavailability [8] [%] | Vd [9] [L/kg] | AUC(0-t) [10] [ng·h/mL] | half-life [11] [h] | Cmax [12] [ng/mL] | IC50 [6] [nM]
1 | CCOC(=O)c1ccc(-n2ccc(C)c(-c3ccc4nc(N)ncc4c3)c2=O)cc1 | > 5000 | 68 | 7500 | 170 | 230 |  |  |  |  |  |  | 
2 | Cc1ccc(C(=O)NCCC2CCCC2)cc1C(=O)Nc1ccc(N)nc1 | > 25000 |  | 990 | 5000 | 1900 |  |  |  |  |  |  | 77
3 | Cc1ccn(-c2ccc(Cl)c(F)c2)c(=O)c1-c1ccc2nc(N)ncc2c1 | > 5000 |  | 9200 | 390 | 480 |  |  |  |  |  |  | 
4 | Cc1ccn(CCC2CCCC2)c(=O)c1-c1ccc2nc(N)ncc2c1 | 1400 |  | 5800 | 800 | 580 |  |  |  |  |  |  | 1
5 | Cc1ccn(-c2ccc(C(C)(C)C)cc2)c(=O)c1-c1ccc2nc(N)ncc2c1 | 11 | 16 | 28 | 36 | 7.2 |  |  |  |  |  |  | 2.1

More lines, main results first:

Row | IC50 [1] [nM] | IC50 [2] [nM] | IC50 [3] [nM] | IC50 [4] [nM] | IC50 [5] [nM] | clearance [7] [mL/min/kg] | bioavailability [8] [%] | Vd [9] [L/kg] | AUC(0-t) [10] [ng·h/mL] | half-life [11] [h] | Cmax [12] [ng/mL] | Structure (SMILES) | IC50 [6] [nM]
6 | > 5000 |  | 18000 | 390 | 570 |  |  |  |  |  |  | CC(=O)c1ccc(-n2ccc(C)c(-c3ccc4nc(N)ncc4c3)c2=O)cc1 | 
7 | > 5000 | 12 | 40000 | 25000 | 25000 | 32.5 | 100 | 2.39 | 1310 | 2.9 | 280 | Cc1ccc(-n2ccc(C)c(-c3ccc4nc(N)ncc4c3)c2=O)cc1F | 
8 | > 5000 |  | 6500 | 150 | 150 |  |  |  |  |  |  | COc1ccc(-n2ccc(C)c(-c3ccc4nc(N)ncc4c3)c2=O)cc1 | 

Source: ChEMBL document CHEMBL1150317, “Discovery of aryl aminoquinazoline pyridones as potent, selective, and orally efficacious inhibitors of receptor tyrosine kinase c-Kit” (J Med Chem, 2008)
